This note sets out measurements from patent US10266510B2, “Antimicrobial and cytotoxic compounds and methods for treating cancer, a bacterial infection, and/or a fungal infection” (King Abdulaziz University, priority 2017, dated 2019).

≈ marks a conversion by molar mass, not a printed value.

For series [1], the system named is HCT116 (colon cancer cell line). As to the kind of experiment: Tumor cell growth assay (sulforhodamine B), HCT116. The series is classed as cell-based. The note with it: for Remarks (% at 100 ppm): 48 h; for Inhibitory effect on in vitro growth (in words): 48 h exposure; for LC90: death of 90% of cells in 48 hrs. From the text:
(§1) Reagents: Fetal bovine serum (FBS) and L-glutamine were purchased from Gibco Invitrogen Co. (Scotland, UK). RPMI-1640 medium was from Cambrex (New Jersey, USA). Dimethyl sulfoxide (DMSO), doxorubicin, penicillin, streptomycin and sulforhodamine B (SRB) were from Sigma Chemical Co. (Saint Louis, USA).
(§2) Cell cultures: Three human tumor cell lines, HCT116 (colon cell line), HePG 2 (human hepatocellular carcinoma cell line), and MCF7 (human breast adenocarcinoma) were used. In vitro bioassay on human tumor cell lines were conducted and determined by the Bioassay-Cell Culture Laboratory, National Research Centre, El-Tahrir St., Dokki, Cairo 12622, Egypt. They grew as a monolayer and are routinely maintained in RPMI-1640 medium supplemented with 5% heat-inactivated FBS, 2 mM glutamine and antibiotics (penicillin 100 U/mL, streptomycin 100 μg/mL), at 37° C. in a humidified atmosphere containing 5% CO2. Exponentially growing cells were obtained by plating 1.5×10^5 cells/mL for MCF-7 and HCT116 and 0.75×10^4 cells/mL for HePG2, followed by 24 h of incubation. The effect of the vehicle solvent (DMSO) on the growth of these cell lines was evaluated in all experiments by exposing untreated control cells to the maximum concentration (0.5%) of DMSO used in each assay.
(§3) Tumor cell growth assay: The effect on the in vitro growth of human tumor cell lines was evaluated according to the procedure adopted by the National Cancer Institute (NCI, USA) in the ‘In vitro Anticancer Drug Discovery Screen’ that uses the protein-binding dye sulforhodamine B to assess cell growth. Briefly, cells growing in 96-well plates were then exposed for 48 h to five serial concentrations of each compound, starting from a maximum concentration of 78 μM (P. Skehan, R. Storeng, D. Scudiero, A. Monks, J. McMahon, D. Vistica, J. T. Warren, H. Bokesch, S. Kenney, M. R. Boyd, J. Natl. Cancer Inst., 82, 1107 (1990), incorporated herein by reference in its entirety). Following this exposure period adherent cells were fixed, washed, and stained. The bound stain was solubilized and the absorbance was measured at 492 nm in a plate reader (Bio-Tek Instruments Inc., Power wave XS, Wincoski, USA). For each test compound and cell line, a dose-response curve was obtained and the growth inhibition of 50% (GI50), corresponding to the concentration of the compounds that inhibited 50% of the net cell growth, was calculated as described elsewhere (A. Monks, D. Scudiero, P. Skehan, R. Shoemaker, K. Paull, D. Vistica, C. Hose, J. Langley, P. Cronise, A. Vaigro-Wolff, M. Gray-Goodrich, H. Campbell, J. Mayo, M. J. Boyd, Natl. Cancer Inst., 83, 757 (1991), incorporated herein by reference in its entirety). Doxorubicin was used as a positive control and tested in the same manner.

Series [2] concerns HePG 2 (human hepatocellular cancer cell line). Description: Tumor cell growth assay (sulforhodamine B), HePG 2. In kind it is cell-based. The note with it: for Remarks (% at 100 ppm): 48 h; for Inhibitory effect on in vitro growth (in words): 48 h exposure.
From the text: as §1, §2, §3

The test system of a further series is Proteus sp. Description: MIC by agar well diffusion method. The series is classed as cell-based. Conditions: 37° C., 24 h; dilutions 50 to 500 μg/mL. The text has this: (§4) The common pathogenic and food spoilage microorganisms were selected for their relevance in bakery products and other food: the gram-positive bacteria: Bacillus subtilits NRRL-B-4219, Staphylococcus aureus ATCC 6538, Enterococcus faecalis ATCC 19433; the gram negative bacteria: Escherichia coli ATCC 25922, Pseudomonas aeruginosa ATCC 9027, Proteus sp.; yeasts, such as Candida albicans ATCC 10231; and fungi: Aspergillus niger NRRL 2766 (equivalent to ATCC 16888), and Aspergillus flavus ATCC 16883. The bacteria were slanted on nutrient agar (Merck, Darmstadt, Germany), yeast was slanted and mentioned on Sabaroud's agar medium (Lab M., Bury, Lancashire, UK) and the fungi was slanted and mentioned on the potato Dextrose Agar medium (Lab M Limited, Bury, Lancashire, UK). Mueller-Hinton agar (Lab M., Bury, Lancashire, UK) following the manufacturer's instructions was used for the assay. The in vitro minimum inhibitory concentration (MIC) of the synthesized compounds was determined by the agar well diffusion method. DMSO was used to prepare different concentrations ranging from 50 to 500 μg/mL by serial dilutions. The media were inoculated with 100 μL of each of the 10^6 cfu/mL bacterial and fungal strains, and the assay was applied by an agar well diffusion method. Blank DMSO was used as negative control. The plates were incubated aerobically in an incubator at 37° C. for 24 h for bacterial strains and 25° C. for 48 h for fungal strains. The MIC was taken as the lowest concentration in the series dilution that prevented bacterial growth.

In series [3] the test system is Candida albicans ATCC 10231. As to the kind of experiment: MIC by agar well diffusion method. In kind it is cell-based. The note with it: 25° C., 48 h, dilutions 50 to 500 μg/mL; for MIC: Candida albicans, ATCC10231.
From the text: as §4
(In general: Agar diffusion results depend on both activity and mobility in agar.)

For series [4], the system named is Escherichia coli ATCC 25922. As to the kind of experiment: MIC by agar well diffusion method. In kind it is cell-based. Conditions: 37° C., 24 h, dilutions 50 to 500 μg/mL; for MIC: Escherichia coli, ATCC25922.
From the text: as §4

Series [5] concerns Staphylococcus aureus ATCC 6538. As to the kind of experiment: MIC by agar well diffusion method. The note with it: 37° C., 24 h, dilutions 50 to 500 μg/mL; for MIC: Staphylococcus aureus, ATCC6538, read-out: MIC, S. aureus. The series is classed as cell-based.
From the text: as §4

In series [6] the test system is Aspergillus flavus ATCC 16883. As to the kind of experiment: MIC by agar well diffusion method. In kind it is cell-based. The note with it: 25° C., 48 h, dilutions 50 to 500 μg/mL; for MIC: Aspergillus flavus, ATCC16883.
From the text: as §4

The subject of series [7] is Enterococcus faecalis ATCC 19433. As to the kind of experiment: MIC by agar well diffusion method. In kind it is cell-based. The note with it: 37° C., 24 h, dilutions 50 to 500 μg/mL; for MIC: Enterococcus faecalis, ATCC19433, read-out: MIC, Ent. faecalis.
From the text: as §4

The test system of series [8] is Bacillus subtilits NRRL-B-4219. As to the kind of experiment: MIC by agar well diffusion method. In kind it is cell-based. Conditions: 37° C., 24 h, dilutions 50 to 500 μg/mL; for MIC: Bacillus, NRRLB4219.
From the text: as §4

In series [9] the test system is Aspergillus niger NRRL 2766. Description: MIC by agar well diffusion method. The note with it: 25° C., 48 h, dilutions 50 to 500 μg/mL; for MIC: Aspergillus niger, NRRL2766. In kind it is cell-based.
From the text: as §4

The test system of series [10] is Pseudomonas aeruginosa ATCC 9027. As to the kind of experiment: MIC by agar well diffusion method. The series is classed as cell-based. The note with it: 37° C., 24 h, dilutions 50 to 500 μg/mL; for MIC: Pseudomonas aeruginosa, ATCC9027, read-out: MIC, P. aeruginosa.
From the text: as §4

Series [11] has as its system MCF7 (human breast cancer cell line). Description: Tumor cell growth assay (sulforhodamine B), MCF7. The series is classed as cell-based. Conditions: for Remarks (% at 100 ppm): 48 h; for Inhibitory effect on in vitro growth (in words): 48 h exposure; for LC90: death of 90% of cells in 48 hrs.
From the text: as §1, §2, §3

On to `CCOC1Oc2ccccc2C(=O)C1=NNc1ccccc1OC` (stereo not shown) [Compound 6b, 2-ethoxy-3-(2-(2-methoxyphenyl)hydrazono)chroman-4-one], for which the melting point – broadly, the temperature, or range, at which the solid turns liquid – came to 158 °C. In series [1], the “Remarks (% at 100 ppm)” value came to 39.6% at 100 ppm. For the same compound, in [2], the “Remarks (% at 100 ppm)” value is reported as 56.1% at 100 ppm. Also, inhibition of growth in the series on Proteus sp. (MIC) required 350 µg/mL (≈ 1070 µM). In series [3], the MIC (as a rule, the lowest concentration found to suppress growth) stood at 400 µg/mL (≈ 1230 µM). In series [4], this compound registered an MIC of 250 µg/mL (≈ 766 µM). The minimal inhibitory concentration (MIC) in [5] came to 300 µg/mL (≈ 919 µM). The MIC in series [6] was 350 µg/mL (≈ 1070 µM). Also, the MIC in series [7] is 450 µg/mL (≈ 1380 µM). This compound also came in with an MIC in series [8] of 200 µg/mL (≈ 613 µM). Moreover, the MIC in series [9] turned out to be 300 µg/mL (≈ 919 µM). In addition, the minimal inhibitory concentration (MIC) in [10] was 400 µg/mL (≈ 1230 µM). The “Remarks (% at 100 ppm)” value in [11] came to 22.9% at 100 ppm.
Consider `CCOC1Oc2ccccc2C(=O)C1=NNc1ccc(Cl)cc1` (stereo not shown) [Compound 6c, 3-[(4-Chlorophenyl)hydrazono]-2-ethoxychroman-4-one], for which the “Inhibitory effect on in vitro growth (in words)” value (from here on “Inhibitory effect”) in series [1], in series [2] and in [11] was “highest inhibitory effect” each time. For the same compound, the CC50 in series [1] (Homo sapiens, HCT-116, death of 50% of cells in 48 hrs, read-out: LC50 (the source's name)) stood at 13.2 µg/mL (≈ 39.9 µM). In addition, the results for the “Remarks (% at 100 ppm)” value in [1], in [2] and in series [11] were 100% at 100 ppm, 94.2% at 100 ppm and 100% at 100 ppm, respectively. Moreover, the LC90 in [1] is 23.1 µg/mL (≈ 69.8 µM); in [2] (death of 90% of cells in 48 hrs) it was 68.9 µg/mL (≈ 208 µM); in [11] it was 27.0 µg/mL (≈ 81.6 µM). Further, the LC50 (concentration killing 50% of cells) in [2] (Homo sapiens, HepG2, death of 50% of cells in 48 hrs) came out at 39 µg/mL; in series [11] (Homo sapiens, death of 50% of cells in 48 hrs), 15.8 µg/mL. In addition, the minimum inhibitory concentration (MIC) stood at 150 µg/mL (≈ 453 µM) against Proteus sp.; 50 µg/mL (≈ 151 µM) in [3]; 50 µg/mL (≈ 151 µM) in series [4]; 150 µg/mL (≈ 453 µM) in [5]; 200 µg/mL (≈ 605 µM) in [6]; 200 µg/mL (≈ 605 µM) in [7]. Besides, the MIC in series [8] was determined as 75 µg/mL (≈ 227 µM); in [9], 100 µg/mL (≈ 302 µM); in series [10], 150 µg/mL (≈ 453 µM).
Consider “Ethoxy-3-[(4-nitro-phenyl)-hydrazono]-chroman-one [Compound 6a]”, for which, in series [1], the “Inhibitory effect” value is on record as “highest inhibitory effect”, the “Remarks (% at 100 ppm)” value amounted to 65.3% at 100 ppm and the LC90 turned out to be 123.3 µg/mL. In [2], the “Inhibitory effect” value is given as “highest inhibitory effect” and the “Remarks (% at 100 ppm)” value stood at 45.3% at 100 ppm. In addition, in the series on Proteus sp., the “MIC, Proteus sp.” value is 250 µg/mL. The “MIC, C. albicans” value in series [3] turned out to be 250 µg/mL. The “MIC, E. coli” value in [4] was found to be 100 µg/mL. Further, in series [5], the “MIC, S. aureus” value was 350 µg/mL. The “MIC, A. flavus” value in series [6] was found to be 250 µg/mL. Moreover, the “MIC, Ent. faecalis” value in [7] was determined as 250 µg/mL. In addition, in [8], the “MIC, B. subtilits” value amounted to 150 µg/mL. Also, in [9], the “MIC, A. niger” value was found to be 200 µg/mL. Moreover, the “MIC, P. aeruginosa” value in [10] was determined as 300 µg/mL. Besides, in series [11], the “Inhibitory effect” value was “highest inhibitory effect”, the “Remarks (% at 100 ppm)” value turned out to be 61.3% at 100 ppm and the LC90 was 124.1 µg/mL. Further, the LC50 (in general, the concentration lethal to half of the exposed cells or organisms) in [11] (death of 50% of cells in 48 hrs) amounted to 76.3 µg/mL.
